# Test results taken from patent publication US20260151518A1, “LEUKOCYTE-SPECIFIC CELL PENETRATING MOLECULES” (Amytrx Therapeutics, Inc., priority 2021, published 2026).
# Marks after values point to notes of the source that are not given here.
# Assay: Tissue distribution of radioactivity by quantitative whole body autoradiography (QWBA) after single intravenous [3H]-AMTX-100
# Format: in vivo, rat
# Procedure: The formulation was administered directly into a tail vein. The dose volume (2.5 mL/kg) was used to achieve a dose level of 5 mg/kg and radioactive dose levels of 100 μCi/kg (Phase 1) and 500 μCi/kg (Phase 2). The dose formulation was stirred continuously throughout the dosing procedure.
# Quantitative Whole Body Autoradiography (QWBA). The frozen carcasses were subjected to QWBA. Sections were presented at up to five different levels of the rat body to include between 30 and 40 tissues (subject to presence of sufficient radioactivity).
# The freeze-dried whole body autoradiography sections were exposed to phosphor-storage imaging plates and incubated at ambient temperature in the dark for seven days. Calibrated autoradiographic blood standards containing known amounts of radioactivity (nCi/g) were included in each exposure.
# Distribution of radioactivity in tissues and [^3H]-blood standards (prepared and validated at Pharmaron UK Ltd.) was determined and quantified using a Fuji FLA-5100 fluorescent image analyzing system and associated Tina (version 2.09) and SeeScan (version 2.0) software. For each exposure, a standard curve was produced in SeeScan using the data from the autoradiographic blood standards from which tissue concentrations of radioactivity (μg equivalents/g) were determined.
# A representative background radioactivity measurement for each exposure plate used was also taken. The number of measurements for each particular tissue was determined by the number of levels it appeared in. Multiple measurements were therefore performed for larger tissues that appeared in more than one level (e.g. liver), with only one measurement obtained for small tissues (e.g. thyroid gland). The limit of accurate quantification was considered to be the lowest [^3H]-blood standard visible.
# Three of the carcasses obtained from the eight male Sprague Dawley rats subjected to whole blood collection and analysis after each receiving a single intravenous administration of [^3H]-AMTX-100, were selected for QWBA analysis at each of the following time points: 10 minutes and 2 and 12 hours post-dose.
# Each carcass was snap frozen by immersion in a hexane/dry ice mixture immediately after collection and was then stored at approximately −20° C., pending analysis by QWBA.
# [1] = single intravenous, 5 mg/kg, rat, 10 min
# [2] = single intravenous, 5 mg/kg, rat, 2 hr
# [3] = single intravenous, 5 mg/kg, rat, 12 hr
smiles,measurement,setting,value
CSCC[C@@H]1NC(=O)[C@H](CC(C)C)NC(=O)[C@H](CCCCN)NC(=O)[C@H](CCC(N)=O)CC(=O)[C@H](CCCNC(=N)N)NC(=O)[C@H](CCCCN)NC(=O)[C@H](CCCNC(=N)N)NC(=O)[C@H](CCC(N)=O)NC(=O)[C@H](C(C)C)NC(=O)[C@@H](NC(=O)[C@@H]2CCCN2C(=O)[C@H](C)NC(=O)[C@H](CC(C)C)NC(=O)[C@H](CC(C)C)NC(=O)[C@H](C)NC(=O)[C@H](CC(C)C)NC(=O)[C@H](CC(C)C)NC(=O)[C@@H](NC(=O)[C@H](C)NC(=O)[C@@H]2CCCN2C(=O)[C@H](CC(C)C)NC(=O)[C@H](CC(C)C)NC(=O)[C@H](C)NC(=O)[C@@H](NC(=O)[C@H](C)NC(=O)[C@H](C)N)C(C)C)C(C)C)CSSC[C@@H](C(=O)O)NC(=O)[C@@H]2CCCN2C1=O [[^3H]-AMTX-100],Radioactivity localization in heart and other muscle cells,rats,lack of radioactivity localization in heart and other muscle cells
same,Organ localization of radioactivity,"rats, spleen, lung, liver, lymph nodes, kidney, adrenal gland, bone marrow, pancreas, small intestine, etc.",localized to organs where immune cells are known to reside and traffic through
same,Concentration of radioactivity in Adrenal gland,[1],9.93 μg equivalents/g
same,Concentration of radioactivity in Blood: residual cardiac,[1],2.89 μg equivalents/g
same,Concentration of radioactivity in Bone,[1],BLQ (Below lower limit of accurate quantification (<0.36 μg equivalents/g))
same,Concentration of radioactivity in Bone marror,[1],4.44 μg equivalents/g
same,Concentration of radioactivity in Brain,[1],BLQ (Below lower limit of accurate quantification (<0.36 μg equivalents/g))
same,Concentration of radioactivity in Caecum contents,[1],BLQ (Below lower limit of accurate quantification (<0.36 μg equivalents/g))
same,Concentration of radioactivity in Caecum mucosa,[1],0.82 μg equivalents/g
same,Concentration of radioactivity in Choroid plexus,[1],0.71 μg equivalents/g
same,Concentration of radioactivity in Epididymis,[1],0.44 μg equivalents/g
same,Concentration of radioactivity in Ex-orbital lachrymal gland,[1],0.71 μg equivalents/g
same,Concentration of radioactivity in Eye: lens,[1],BLQ (Below lower limit of accurate quantification (<0.36 μg equivalents/g))
same,Concentration of radioactivity in Eye: whole,[1],BLQ (Below lower limit of accurate quantification (<0.36 μg equivalents/g))
same,Concentration of radioactivity in Fat: brown,[1],0.59 μg equivalents/g
same,Concentration of radioactivity in Fat: white,[1],0.38 μg equivalents/g
same,Concentration of radioactivity in Forestomach mucosa,[1],0.52 μg equivalents/g
same,Concentration of radioactivity in Glandular stomach mucosa,[1],1.13 μg equivalents/g
same,Concentration of radioactivity in Harderian gland,[1],0.46 μg equivalents/g
same,Concentration of radioactivity in Kidney: cortex,[1],16.30 μg equivalents/g
same,Concentration of radioactivity in Kidney: medulla,[1],10.10 μg equivalents/g
same,Concentration of radioactivity in Kidney: whole,[1],13.30 μg equivalents/g
same,Concentration of radioactivity in Large intestine contents,[1],BLQ (Below lower limit of accurate quantification (<0.36 μg equivalents/g))
same,Concentration of radioactivity in Large intestine mucosa,[1],0.80 μg equivalents/g
same,Concentration of radioactivity in Liver,[1],58.60 μg equivalents/g
same,Concentration of radioactivity in Lung,[1],96.70 μg equivalents/g
same,Concentration of radioactivity in Lymph node,[1],1.13 μg equivalents/g
same,Concentration of radioactivity in Muscle,[1],0.52 μg equivalents/g
same,Concentration of radioactivity in Myocardium,[1],1.25 μg equivalents/g
same,Concentration of radioactivity in Pancreas,[1],1.71 μg equivalents/g
same,Concentration of radioactivity in Pituitary gland,[1],2.21 μg equivalents/g
same,Concentration of radioactivity in Prostate gland,[1],0.41 μg equivalents/g
same,Concentration of radioactivity in Salivary gland,[1],1.09 μg equivalents/g
same,Concentration of radioactivity in Skin,[1],0.48 μg equivalents/g
same,Concentration of radioactivity in Small intestine contents,[1],BLQ (Below lower limit of accurate quantification (<0.36 μg equivalents/g))
same,Concentration of radioactivity in Small intestine mucosa,[1],0.54 μg equivalents/g
same,Concentration of radioactivity in Spinal cord,[1],BLQ (Below lower limit of accurate quantification (<0.36 μg equivalents/g))
same,Concentration of radioactivity in Spleen: red pulp,[1],15.40 μg equivalents/g
same,Concentration of radioactivity in Spleen: white pulp,[1],8.70 μg equivalents/g
same,Concentration of radioactivity in Spleen: whole,[1],55.80 μg equivalents/g
same,Concentration of radioactivity in Stomach contents,[1],BLQ (Below lower limit of accurate quantification (<0.36 μg equivalents/g))
same,Concentration of radioactivity in Testis,[1],BLQ (Below lower limit of accurate quantification (<0.36 μg equivalents/g))
same,Concentration of radioactivity in Thymus,[1],0.45 μg equivalents/g
same,Concentration of radioactivity in Thyroid gland,[1],1.66 μg equivalents/g
same,Concentration of radioactivity in Urinary bladder contents,[1],67.50 μg equivalents/g
same,Concentration of radioactivity in Urinary bladder wall,[1],0.69 μg equivalents/g
same,Concentration of radioactivity in Adrenal gland,[2],5.33 μg equivalents/g
same,Concentration of radioactivity in Blood: residual cardiac,[2],0.82 μg equivalents/g
same,Concentration of radioactivity in Bone,[2],BLQ (Below lower limit of accurate quantification (<0.36 μg equivalents/g))
same,Concentration of radioactivity in Bone marror,[2],4.40 μg equivalents/g
same,Concentration of radioactivity in Brain,[2],BLQ (Below lower limit of accurate quantification (<0.36 μg equivalents/g))
same,Concentration of radioactivity in Caecum contents,[2],BLQ (Below lower limit of accurate quantification (<0.36 μg equivalents/g))
same,Concentration of radioactivity in Caecum mucosa,[2],0.76 μg equivalents/g
same,Concentration of radioactivity in Epididymis,[2],0.67 μg equivalents/g
same,Concentration of radioactivity in Ex-orbital lachrymal gland,[2],0.46 μg equivalents/g
same,Concentration of radioactivity in Eye: lens,[2],BLQ (Below lower limit of accurate quantification (<0.36 μg equivalents/g))
same,Concentration of radioactivity in Eye: whole,[2],BLQ (Below lower limit of accurate quantification (<0.36 μg equivalents/g))
same,Concentration of radioactivity in Fat: brown,[2],BLQ (Below lower limit of accurate quantification (<0.36 μg equivalents/g))
same,Concentration of radioactivity in Fat: white,[2],BLQ (Below lower limit of accurate quantification (<0.36 μg equivalents/g))
same,Concentration of radioactivity in Forestomach mucosa,[2],0.57 μg equivalents/g
same,Concentration of radioactivity in Glandular stomach mucosa,[2],0.81 μg equivalents/g
same,Concentration of radioactivity in Harderian gland,[2],0.37 μg equivalents/g
same,Concentration of radioactivity in Kidney: cortex,[2],9.59 μg equivalents/g
same,Concentration of radioactivity in Kidney: medulla,[2],4.47 μg equivalents/g
same,Concentration of radioactivity in Kidney: whole,[2],7.35 μg equivalents/g
same,Concentration of radioactivity in Large intestine contents,[2],BLQ (Below lower limit of accurate quantification (<0.36 μg equivalents/g))
same,Concentration of radioactivity in Large intestine mucosa,[2],0.63 μg equivalents/g
same,Concentration of radioactivity in Liver,[2],31.60 μg equivalents/g
same,Concentration of radioactivity in Lung,[2],31.90 μg equivalents/g
same,Concentration of radioactivity in Lymph node,[2],0.83 μg equivalents/g
same,Concentration of radioactivity in Muscle,[2],BLQ (Below lower limit of accurate quantification (<0.36 μg equivalents/g))
same,Concentration of radioactivity in Myocardium,[2],0.53 μg equivalents/g
same,Concentration of radioactivity in Pancreas,[2],1.69 μg equivalents/g
same,Concentration of radioactivity in Pituitary gland,[2],1.58 μg equivalents/g
same,Concentration of radioactivity in Prostate gland,[2],0.83 μg equivalents/g
same,Concentration of radioactivity in Salivary gland,[2],0.80 μg equivalents/g
same,Concentration of radioactivity in Skin,[2],0.39 μg equivalents/g
same,Concentration of radioactivity in Small intestine contents,[2],1.23 μg equivalents/g
same,Concentration of radioactivity in Small intestine mucosa,[2],0.89 μg equivalents/g
same,Concentration of radioactivity in Spinal cord,[2],BLQ (Below lower limit of accurate quantification (<0.36 μg equivalents/g))
same,Concentration of radioactivity in Spleen: red pulp,[2],11.90 μg equivalents/g
same,Concentration of radioactivity in Spleen: white pulp,[2],2.92 μg equivalents/g
same,Concentration of radioactivity in Spleen: whole,[2],41.80 μg equivalents/g
same,Concentration of radioactivity in Stomach contents,[2],BLQ (Below lower limit of accurate quantification (<0.36 μg equivalents/g))
same,Concentration of radioactivity in Testis,[2],0.37 μg equivalents/g
same,Concentration of radioactivity in Thymus,[2],0.68 μg equivalents/g
same,Concentration of radioactivity in Thyroid gland,[2],1.29 μg equivalents/g
same,Concentration of radioactivity in Urinary bladder wall,[2],1.22 μg equivalents/g
same,Concentration of radioactivity in Urinary bladder contents,"single intravenous, 5 mg/kg, rat, 2 hr, above upper limit of accurate quantification (>153 μg equivalents/g)",219.00* μg equivalents/g
same,Concentration of radioactivity in Adrenal gland,[3],0.44 μg equivalents/g
same,Concentration of radioactivity in Blood: residual cardiac,[3],BLQ (Below lower limit of accurate quantification (<0.36 μg equivalents/g))
same,Concentration of radioactivity in Bone marror,[3],2.18 μg equivalents/g
same,Concentration of radioactivity in Caecum contents,[3],BLQ (Below lower limit of accurate quantification (<0.36 μg equivalents/g))
same,Concentration of radioactivity in Kidney: cortex,[3],0.61 μg equivalents/g
same,Concentration of radioactivity in Kidney: medulla,[3],0.45 μg equivalents/g
same,Concentration of radioactivity in Kidney: whole,[3],0.54 μg equivalents/g
same,Concentration of radioactivity in Large intestine contents,[3],0.36 μg equivalents/g
same,Concentration of radioactivity in Large intestine mucosa,[3],BLQ (Below lower limit of accurate quantification (<0.36 μg equivalents/g))
same,Concentration of radioactivity in Liver,[3],8.77 μg equivalents/g
same,Concentration of radioactivity in Lung,[3],30.10 μg equivalents/g
same,Concentration of radioactivity in Muscle,[3],BLQ (Below lower limit of accurate quantification (<0.36 μg equivalents/g))
same,Concentration of radioactivity in Pancreas,[3],BLQ (Below lower limit of accurate quantification (<0.36 μg equivalents/g))
same,Concentration of radioactivity in Small intestine contents,[3],0.47 μg equivalents/g
same,Concentration of radioactivity in Small intestine mucosa,[3],BLQ (Below lower limit of accurate quantification (<0.36 μg equivalents/g))
same,Concentration of radioactivity in Spleen: red pulp,[3],6.89 μg equivalents/g
same,Concentration of radioactivity in Spleen: white pulp,[3],0.89 μg equivalents/g
same,Concentration of radioactivity in Spleen: whole,[3],11.90 μg equivalents/g
same,Concentration of radioactivity in Testis,[3],BLQ (Below lower limit of accurate quantification (<0.36 μg equivalents/g))
same,Concentration of radioactivity in Urinary bladder contents,[3],11.90 μg equivalents/g
same,Concentration of radioactivity in Urinary bladder wall,[3],BLQ (Below lower limit of accurate quantification (<0.36 μg equivalents/g))
